Values joined by “and” are separate entries in the source; they are usually repeats but may differ in a detail not shown here. Identical values can stand only once.
Tests used:
[1] = target: T1, human HSD17B13 (Homo sapiens, UniProt Q7Z5P4); test: HSD17B13 purified protein biochemical enzyme activity assay, NAD(P)H-Glo luciferase readout; conditions: Leukotriene B4 as substrate, NAD+ cofactor
T1 construct: human HSD17B13 (residues 2-300, NP_835236.2); 10x His (N); TEV protease site (N); made in house; host or cells: Sf9 (baculovirus)
T1 sequence (Q7Z5P4 2-300): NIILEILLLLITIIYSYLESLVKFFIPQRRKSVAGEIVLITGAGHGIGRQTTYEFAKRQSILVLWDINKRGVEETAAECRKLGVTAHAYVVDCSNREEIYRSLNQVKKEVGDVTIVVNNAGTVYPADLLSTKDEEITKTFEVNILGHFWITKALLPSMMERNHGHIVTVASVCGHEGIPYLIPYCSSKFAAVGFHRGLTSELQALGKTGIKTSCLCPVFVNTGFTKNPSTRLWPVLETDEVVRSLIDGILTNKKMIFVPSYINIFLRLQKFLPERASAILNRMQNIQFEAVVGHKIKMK

[2] = target: T1, human HSD17B13; test: Co-factor (NAD+ / NADP) dependency biochemical assay, NAD(P)H-Glo readout, uninhibited vs inhibited reactions; conditions: 30 μM 1, 20 nM protein
Description: Dependency of co-factor (NAD^+ and NADP^+) was determined using a purified protein HSD17B13 biochemical enzyme activity assay, using NAD(P)H-Glo luciferase readout (Promega). Substrates β-estradiol (Sigma, E8875) and Leukotriene B4 (LTB4, Cayman), 15 μM FAC in assay buffer (25 mM Tris-HCl (Sigma T2444) and 0.02% Triton X-100, pH 7.6), and 500 µM FAC co-factor (NAD^+ or NADP, Sigma, N8285) in assay buffer were added (2.5 µL/well each) to 384-well assay plates (Corning 3824) containing 2.5 μL of either 30 μM FAC inhibitor in 1% DMSO/assay buffer or vehicle (1% DMSO/assay buffer), in triplicate. The reaction was initiated by the addition of 2.5 µL/well-purified HSD17B13 protein (20 nM FAC in assay buffer). Compound, substrate, co-factor, and HSD17B13 protein were incubated in the dark at room temperature for 2 hours before the addition of 10 µL/well NAD(P)H-Glo detection reagent, prepared from luciferase detection reagent and reductase/reductase substrate, as per manufacturer’s instructions (Promega, G9061). Detection reagent was incubated in the dark for 1 hour at room temperature before plates were read on the Envision plate reader (Perkin Elmer) using a luminescent protocol. Data expressed as relative luminescent units (RLUs) were exported from the plate reader and plotted in GraphPad Prism.

[3] = target: T1, human HSD17B13; test: HSD17B13 purified protein biochemical enzyme activity assay, NAD(P)H-Glo luciferase readout; conditions: IC 50 mean, Supplementary Figure 8 source data, unit inferred, uM printed
Description: HSD17B13 enzyme inhibition potency of test compounds was determined using a purified protein biochemical enzyme activity assay, using NAD(P)H-Glo luciferase readout (Promega). HSD17B13 enzyme uses the oxidized form of nicotinamide adenine dinucleotide (NAD^+) as a cofactor during metabolism of β-estradiol (substrate) to […] (product), while converting NAD^+ to the reduced form (NADH). The Promega NAD(P)H-Glo™ assay is a homogeneous bioluminescent assay that generates a light signal from biochemical reactions that contain NADH (or nicotinamide adenine dinucleotide phosphate, NADPH). In the presence of NADH (or NADPH), the enzyme Reductase reduces a proluciferin reductase substrate to form luciferin. Luciferin then is quantified using Ultra-Glo™ Recombinant Luciferase (rLuciferase), and the light signal produced is proportional to the amount of NAD(P)H in the sample. […] The reaction was initiated by the addition of 2 µL/well purified HSD17B13 protein (30 nM FAC in assay buffer). […] Detection reagent was incubated in the dark for 1 hour at room temperature before plates were read on the Envision plate reader (Perkin Elmer) using a luminescent protocol. Data expressed as relative luminescent units (RLUs) were then normalized to control wells using Activity Base (IDBS). […]

[4] = target: T1, human HSD17B13; test: Thermal shift assay (static light scattering, Tagg), human HSD17B13; format: binding; conditions: for Tagg, individual measurements: 10.4 µM protein; for thermal stability change: Fig. 6c
Excerpt: To understand ligand binding, we tested several approaches such as surface plasmon resonance and isothermal calorimetry. […] We next turned to thermal shift assays (TSA) for comparing ligand binding affinities. TSA measures the changes in the thermal denaturation temperature of a protein under different conditions such as the presence compound, changes in buffer conditions, or sequence mutations. There are various readouts including intrinsic fluorescence or light scattering signals. We chose the static light scattering methods to detect the temperatures at which our proteins start to aggregate (Tagg), which are more suitable for membrane proteins that require detergent micelles for stability.
TSA studies were run on the UNit instrument (Unchained Labs, CA, USA). Experiments were run in either 25 mM sodium phosphate pH 7, 150 mM NaCl, 10% glycerol, 1 mM TCEP, 0.05% DDM, + different cofactors (NAD^+, NADH, NADP, NADPH; MilliporeSigma) or 25 mM HEPES pH 7.2, 300 mM NaCl, 0.5 mM TCEP, 0.05% DDM, 10% glycerol, ±500 µM NAD^+, and ±100 µM compound 1 (from 2 mM DMSO stock) or DMSO or 50 mM Hepes pH 7.5, 300 mM NaCl, 0.5 mM TCEP, 0.05% DDM, 500 µM NAD^+, ± 50 µM compounds (from 2 mM stock) or DMSO. Protein aggregation was measured by static light scattering at 266 and 473 nm with a 1 °C/sec ramp rate from 20-80 °C. The data was processed using the UNcle software (Unchained Labs, CA, USA), and temperatures at which the protein started aggregation were recorded as Tagg. Reported Tagg and analysis were based on measurements at 266 nm unless otherwise indicated.

`O=C(NC[C@]1(O)CC[C@H](COc2ccccc2F)CC1)c1ccc(O)c(F)c1` [Compound 1] was tested, and the IC50 [1] was 0.25 ± 0.09 µM, the “signal of inhibited reaction” value ([2]; LTB4 + NAD) was 49880 RLU and 52640 RLU and the “signal of inhibited reaction” value ([2]; LTB4 + NADP) was 49240 RLU and 47920 RLU. For the same compound, the “signal of inhibited reaction” value ([2]; β-estradiol + NAD) was 48200 RLU and 48320 RLU, the “signal of inhibited reaction” value ([2]; β-estradiol + NADP) was 47760 RLU and 49720 RLU and the IC50 [3] was 0.18 µM. The “Tagg, individual measurements” value ([4]; 100 µM ligand + 500 µM NAD+) was 54.6 °C and 55.1 °C (2×) and 54.2 °C, the “Tagg, individual measurements” value ([4]; 100 µM ligand, buffer without NAD+) was 41.2 °C and 41.6 °C and 44.6 °C and 45 °C and the deltaTagg ([4]; 500 uM NAD, 100 µM ligand, Tagg(compound + NAD+) - Tagg(buffer + NAD+)) was 13.1. For the same compound, the “thermal stability change” value ([4]; in the absence of cofactor) was “no significant effect”, the “thermal stability change” value ([4]; in the presence of NAD+) was “significant increase in thermal stability” and the “binding in TSA” value ([4]; Fig. 6d, 500 μM NAD+) was “bound human HSD17B13 strongly”. The Tagg ([4]; Fig. 6d, 500 μM NAD+, 50 µM compound) was 49.1 ± 2.0 °C and the dTagg ([4]; no NAD, 100 µM ligand, vs buffer) was 3.033.

— article PMC10449848, “Structural basis of lipid-droplet localization of 17-beta-hydroxysteroid dehydrogenase 13” (Nature Communications, 2023)
